biological target: T1, URAT-1 transporter (Homo sapiens, UniProt Q96S37); assay: URAT-1 inhibitor activity: [14C]-uric acid uptake into CHO-URAT1(L)GFP#8 (CHO#8) cells, scintillation proximity; type: cell-based
T1 construct: expressed in transfected cells
Outline: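 CHO cells stably expressing human URAT1 long isoform C-terminally fused to eGFP, preincubated 1 hour in chloride-containing buffer, then 15 minutes with compound (0–10 μM, 0.25% DMSO) in chloride-free buffer pH 7.4. [14C]-uric acid at 30 nM final added; uptake read by scintillation proximity after three hours at room temperature, dark.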

T1 sequence (Q96S37 with tags, fused parts or gaps): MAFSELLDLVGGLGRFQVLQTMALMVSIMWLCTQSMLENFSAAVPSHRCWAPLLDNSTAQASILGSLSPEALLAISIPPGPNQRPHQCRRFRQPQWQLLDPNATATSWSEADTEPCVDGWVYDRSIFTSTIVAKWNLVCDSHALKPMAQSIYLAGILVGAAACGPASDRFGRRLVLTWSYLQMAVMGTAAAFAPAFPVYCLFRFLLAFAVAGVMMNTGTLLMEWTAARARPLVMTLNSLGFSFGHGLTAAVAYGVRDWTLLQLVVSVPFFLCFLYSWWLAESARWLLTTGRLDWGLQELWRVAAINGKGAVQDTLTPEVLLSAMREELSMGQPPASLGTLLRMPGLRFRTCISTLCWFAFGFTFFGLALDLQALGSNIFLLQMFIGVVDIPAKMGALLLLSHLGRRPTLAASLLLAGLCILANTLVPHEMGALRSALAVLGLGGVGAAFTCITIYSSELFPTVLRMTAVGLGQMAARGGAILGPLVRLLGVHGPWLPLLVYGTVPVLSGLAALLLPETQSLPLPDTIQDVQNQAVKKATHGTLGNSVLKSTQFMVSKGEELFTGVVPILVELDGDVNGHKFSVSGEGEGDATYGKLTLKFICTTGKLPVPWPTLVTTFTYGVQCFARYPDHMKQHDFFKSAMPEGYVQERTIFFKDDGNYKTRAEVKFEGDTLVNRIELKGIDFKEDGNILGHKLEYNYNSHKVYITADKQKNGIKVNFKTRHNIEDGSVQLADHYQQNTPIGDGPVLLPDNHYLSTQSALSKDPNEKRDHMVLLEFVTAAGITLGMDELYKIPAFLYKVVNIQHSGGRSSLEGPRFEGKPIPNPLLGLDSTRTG

Row | Compound | IC50
1 | CCSc1ncccc1Oc1cc(F)c(S(=O)(=O)Nc2nncs2)cc1Cl [compound 304] | 1010 nM
2 | COc1ccccc1Oc1cc(F)c(S(=O)(=O)Nc2nncs2)cc1Cl [compound 305] | > 5780 nM
3 | COc1cccc(Oc2cc(F)c(S(=O)(=O)Nc3nncs3)cc2Cl)c1 [compound 306] | 2410 nM
4 | CCc1ncccc1Oc1cc(F)c(S(=O)(=O)Nc2nncs2)cc1Cl [compound 307] | > 7190 nM
5 | Cc1ccnc(C)c1Oc1cc(F)c(S(=O)(=O)Nc2nncs2)cc1Cl [compound 308] | > 10000 nM
6 | COc1ccc(C#N)cc1Oc1cc(F)c(S(=O)(=O)Nc2nncs2)cc1Cl [compound 309] | > 10000 nM
7 | CSc1ncccc1Oc1cc(F)c(S(=O)(=O)Nc2nncs2)cc1Cl [compound 310] | 864 nM
8 | Cc1cncc(Oc2cc(F)c(S(=O)(=O)Nc3nncs3)cc2Cl)c1 [compound 311] | 1100 nM
9 | COc1cc(F)ccc1Oc1cc(F)c(S(=O)(=O)Nc2nncs2)cc1Cl [compound 312] | > 6450 nM
10 | Cc1ccncc1Oc1cc(F)c(S(=O)(=O)Nc2nncs2)cc1Cl [compound 313] | 3170 nM
11 | Cc1ccc(Oc2cc(F)c(S(=O)(=O)Nc3nncs3)cc2Cl)cc1 [compound 314] | > 10000 nM
12 | COc1ccc(F)c(Oc2cc(F)c(S(=O)(=O)Nc3nncs3)cc2Cl)c1 [compound 315] | 2180 nM

Results, then the compound that gave them:

Row | IC50 | Compound
13 | > 10000 nM | COc1cc(C#N)c(F)cc1Oc1cc(F)c(S(=O)(=O)Nc2nncs2)cc1Cl [compound 316]
14 | 1630 nM | COc1ccc(Oc2cc(F)c(S(=O)(=O)Nc3nncs3)cc2Cl)c(Cl)c1 [compound 317]
15 | 145 nM | Cc1c(Oc2cc(F)c(S(=O)(=O)Nc3nncs3)cc2Cl)ccc(F)c1F [compound 318, 5-chloro-4-(3,4-difluoro-2-methylphenoxy)-2-fluoro-N-(1,3,4-thiadiazol-2-yl)benzenesulfonamide]
16 | > 1710 nM | COc1c(Oc2cc(F)c(S(=O)(=O)Nc3nncs3)cc2Cl)ccc(F)c1C [compound 319]
17 | > 7610 nM | COc1ccc(Oc2cc(F)c(S(=O)(=O)Nc3nncs3)cc2Cl)cc1Cl [compound 320]
18 | 275 nM | COc1cccc(C)c1Oc1cc(F)c(S(=O)(=O)Nc2nncs2)cc1Cl [compound 321]
19 | 2990 nM | Cc1cc(Oc2cc(F)c(S(=O)(=O)Nc3nncs3)cc2Cl)ccc1F [compound 322]
20 | 2170 nM | COc1cccc(Oc2cc(F)c(S(=O)(=O)Nc3nncs3)cc2Cl)c1C [compound 323]
21 | 3280 nM | COc1ccc(Oc2cc(F)c(S(=O)(=O)Nc3nncs3)cc2Cl)cc1F [compound 324]
22 | 2000 nM | CC(C)Oc1ccccc1Oc1cc(F)c(S(=O)(=O)Nc2nncs2)cc1Cl [compound 325]
23 | 369 nM | COc1ccc(Cl)c(Oc2cc(F)c(S(=O)(=O)Nc3nncs3)cc2Cl)c1 [compound 326]
24 | 619 nM | COc1ccc(C)c(Oc2cc(F)c(S(=O)(=O)Nc3nncs3)cc2Cl)c1 [compound 327]
25 | > 830 nM | Cc1ccccc1Oc1cc(F)c(S(=O)(=O)Nc2nncs2)cc1Cl [compound 328]
26 | 606 nM | COc1c(F)ccc(Oc2cc(F)c(S(=O)(=O)Nc3nncs3)cc2Cl)c1Cl [compound 329]
27 | 2390 nM | O=S(=O)(Nc1nncs1)c1cc(Cl)c(Oc2cccc(Cl)c2)cc1F [compound 330]
28 | > 6720 nM | CCOc1cc(C)ccc1Oc1cc(F)c(S(=O)(=O)Nc2nncs2)cc1Cl [compound 331]
29 | > 2380 nM | O=S(=O)(Nc1nncs1)c1cc(Cl)c(Oc2c(F)cccc2Cl)cc1F [compound 332]

Source: US20140315933A1, “CHEMICAL COMPOUNDS” (Pfizer Limited, priority 2013, published 2014)
